One series concerns HIVADA. The experiment in a line: HIV replication in primary human macrophages, HIV p24 ELISA. Format: cell-based, Human immunodeficiency virus-1 (HIV). To be noted: for inhibition at 100 µM: Human immunodeficiency virus 1, Macrophage. An excerpt: Monocyte isolation and macrophage culture: Human monocytes were isolated from leukopaks obtained from the New York Blood Center. Peripheral blood mononuclear cells (PBMCs) were isolated by differential centrifugation using a Ficoll gradient (GE Healthcare, Piscataway, N.J.) and CD14 positive cells were isolated from PBMCs using CD14 monoclonal antibodies that were then bound by magnetic nanoparticles and separated using a magnetic field (Stem Cell Technologies, Vancouver, BC, Canada). Isolated CD14 positive cells were cultured adherently for 6 days in the presence of 10 ng/ml macrophage-colony stimulating factor (PeproTech, Rocky Hill, N.J.) in RPMI 1640 with 10% FBS, 5% human AB serum, 1% P/S, and 10 mM HEPES to differentiate the cells into macrophages.
HIV replication: After 6 days in culture, macrophages in 48-well plates at a density of 10^5 cells per well were inoculated with 2-20 ng/ml HIVADA, 2 ng/ml HIVYU-2, or 0.2 ng/ml HIVBaL for 24 hours in the presence or absence of purinergic receptor inhibitors. 5 wells were inoculated per condition. After 24 hours, cells were washed with PBS and then cultured with media. Supernatants were collected and medium was changed every 24 hours until 7 days post inoculation (d.p.i.). When the inhibitors oATP, A-740003, MRS 2179, NF 279, BBG, or suramin, were used, they were added when the medium was changed every 24 hours. Viral replication was analyzed by HIV p24 ELISA (Advanced Bioscience Laboratories, Kensington, Md.) according to the manufacturer's instructions
On the technique in general: ELISA stands for enzyme-linked immunosorbent assay.

For series [1], the system named is β-lactamase containing HIVBaL. The experiment in a line: HIV Entry Assay (β-lactamase / CCF2-AM) in primary human macrophages. The note with it: 100 μM; 4 hours; MOI 0.001-0.01; oATP N=5, others N=3. Format: cell-based, Human immunodeficiency virus-1 (HIV). Here is the method: HIV Entry Assay: Primary human macrophages were cultured in black 96-well plates with a clear bottom (Corning Inc., Corning, N.Y.) at a density of 43,000 cells per well. After 7-8 days in culture, cells were inoculated with β-lactamase containing HIVBaL at a multiplicity of infection (MOI) of 0.01, 0.005, or 0.001 in the presence or absence of the purinergic receptor inhibitors oATP, NF 279, A-740003, or MRS 2179 for 4 hours. Beta-lactamase containing HIVBaL was generated as described previously (27). Briefly, HEK-293T cells were transfected using calcium phosphate with two plasmids, one containing the HIVBaL genome, pWT/BaL (NIH repository), the other containing β-lactamase fused to REV vpr, pMM310 (NIH repository). Cells were transfected for 16 hours and then supernatant was collected 24 and 48 hours following transfection. […] Viral stocks were generated by sucrose gradient purification of the transfection supernatants.
Alter viral inoculation of primary human macrophages, cells were washed with phenol red-free DMEM (Gibco) then loaded with CCF2-AM for 6 hours at room temperature using the GeneBLAzer In Vivo Detection Kit (Invitrogen, Carlsbad, Calif.). CCF2-AM fluoresces green due to an internal fluorescence resonance energy transfer, but when cleaved by β-lactamase, this interaction is lost and the molecule fluoresces blue. Cells were imaged using an Olympus IX70 with a Plan 10×/0.25 air objective lens. Images were collected at room temperature through an Olympus E-620LS camera attached to the microscope through an OM adapter MF-1. Images were collected directly onto a memory card and there was no image processing following image collection. Images were collected for 8 fields in 4 separate wells per condition and percentage of cells positive for viral entry was determined by counting the number of blue cells (cells that virus had entered) as compared to the total number of blue and green cells.

The test system of another series is Macrophages. The experiment in a line: Cell viability of macrophages, live/dead assay. It is filed as cell-based. The note with it: 100 μM, 24 hours. An excerpt: Cells were imaged using a Zeiss AxioObserver.D1 with an LD Plan-Neofluar 20×/0.4 air objective lens. Images were collected at room temperature through a Zeiss AxioCam MRm camera using Axiovision software.

The target in series [2] is T1, Panx1 hemichannels (Homo sapiens, UniProt Q96RD7). The experiment in a line: HIV-induced ethidium (Etd) dye uptake, time lapse fluorescence imaging, in PBMCs and CD4+ T lymphocytes. The note with it: 5 min and 72 h; for Etd uptake (rate) induced by the virus: PBMCs exposed to HIVADA, CD4+ T lymphocytes exposed to HIVADA, HIVBal or HIVLAI, Prob 500 μM, 10Panx1 200 μM, scrPanx1 200 μM, La3+ 200 μM, Cx43E2 1:500, siRNA 10 nM. It is filed as cell-based. Also on record: endogenous in cells; host or cells: primary human PBMCs and purified CD4+ T lymphocytes from leukopacks (New York Blood Center). The procedure:
Isolation of human PBMCs and CD4+ T lymphocytes. Anticoagulated blood was obtained from leukopacks obtained from the New York Blood Center as described before (16). PBMCs were isolated by under-layering with Ficoll-Paque (Amersham Bioscience, Uppsala, Sweden) according to the procedure described by the manufacturer. Purified PBMC used in these studies were ˜10% monocytes and ˜90% lymphocytes and other hematopoietic cells, as determined by incubation with premixed human CD45 and CD14 monoclonal antibodies conjugated to FITC and PE, respectively (1:50, Caltag Laboratories, Burlingame, Calif.), followed by fluorescence-activated cell sorter analysis (FACS) as we previously described (17). To obtain a pure population of CD4+ T lymphocytes, monocytes were removed from PBMCs by using CD14 coupled magnetic beads and subsequently CD4+ T lymphocytes were isolated with CD4 coupled magnetic beads (Stem Cell Technologies, Vancouver, BC, Canada).
HIV-infection and quantification of replication. Cell-free viral inocula were obtained from the National Institutes of Health AIDS Research and Reference Reagent Program. Three isolates were used: HIVADA, and HIVBal, two R5 isolates and HIVLAI, an X4 isolate, PBMCs and purified CD4+ T lymphocytes were isolated and activated with phytohemagglutinin (PHA; 5 μg/ml) plus interleukin (IL-2; 5%) in RPMI 1640 for 48 h in polypropylene tubes at a density of 2×10^6 […] PBMCs and CD4+ T lymphocytes were then infected by incubation for 24 h with viral stocks of HIVADA (20 ng p24/ml/1×10^6 cells), HIVLAI (20 ng p24/ml/1×10^6 cells) or HIVBal (0.001 MOI), washed thoroughly, resuspended in fresh medium, and maintained in polypropylene tubes. Uninfected control cells were activated with PHA plus IL-2 for 48 h, washed, and maintained in polypropylene tubes in fresh media without any virus. To determine the levels of HIV infection, the amount of HIV-p24 released into the medium was determined by ELISA (PerkinElmer, Boston, Mass.)
(§1) Dye uptake and time lapse fluorescence imaging. To characterize the functional state of Panx1 hemichannels, dye uptake experiments using ethidium (Etd) bromide were performed as previously described (18, 19). Cells were washed twice in Hank's balanced salt solution and then exposed to Locke's solution (containing: 154 mM NaCl, 5.4 mM KCl, 2.3 mM CaCl2, 5 mM HEPES and pH 7.4) with 5 μM Etd and time lapse microscopy was performed. Phase-contrast and fluorescence microscopy with time-lapse imaging were used to record cell appearance and fluorescence intensity changes in each condition. Fluorescence was recorded every 30 s. The NIH ImageJ program was used for off-line image analysis and fluorescence quantification. For data representation and calculation of Etd uptake slopes, the average of two independent background fluorescence intensity measurements (FB, expressed as arbitrary units, AU) was subtracted from fluorescence intensity′ in each cell (F1). Results of this calculation (F1-FB), for at least 20 cells, were averaged and plotted against time (expressed in minutes). Slopes were calculated using Microsoft Excel software and expressed as AU/min. Microscope and camera settings remained the same in all experiments. Dead cells were clearly identified during the time lapse microscopy due to their non specific Etd uptake (not inhibited by hemichannel blockers) and were not quantified.

Series [3] addresses T1, Panx1 hemichannels. The experiment in a line: Etd uptake in CD4+ T lymphocytes induced by chemokines or gp120. It is filed as cell-based. Also on record: endogenous in cells; host or cells: primary human PBMCs and purified CD4+ T lymphocytes from leukopacks (New York Blood Center). To be noted: gp120 1 μg/ml. The procedure: as §1
For series [4], the target named is T1, Panx1 hemichannels. The experiment in a line: HIV-induced Etd uptake in CD4+ T lymphocytes by flow cytometry (FACS). Format: cell-based. Also on record: endogenous in cells; host or cells: primary human PBMCs and purified CD4+ T lymphocytes from leukopacks (New York Blood Center). To be noted: HIVADA, 5 min and 72 h. Here is the method: Flow cytometry. To measure Etd uptake in CD4+ T cell populations FACS analysis was performed of cells under control conditions or after HIV exposure at several time points. Etd uptake experiments were performed in CD4+ lymphocytes (3-5×10^5), and after the respective time of Etd uptake, cells were fixed with 2% paraformaldehyde for 30 min at room temperature, incubated with 1% BSA in PBS for 30 min and stained with CD4 antibody for 30 min at 4° C. For analyses of Etd positive populations, 10,000 events were acquired on a BD FACS Canto II and analyzed using FlowJo (Ashland, Oreg.) software as we previously described (17, 20).

Entries after “also recorded” stand apart in the source; their conditions may differ. Like-named read-outs stand apart in the source and are kept apart here.

T1 sequence (Q96RD7 whole entry): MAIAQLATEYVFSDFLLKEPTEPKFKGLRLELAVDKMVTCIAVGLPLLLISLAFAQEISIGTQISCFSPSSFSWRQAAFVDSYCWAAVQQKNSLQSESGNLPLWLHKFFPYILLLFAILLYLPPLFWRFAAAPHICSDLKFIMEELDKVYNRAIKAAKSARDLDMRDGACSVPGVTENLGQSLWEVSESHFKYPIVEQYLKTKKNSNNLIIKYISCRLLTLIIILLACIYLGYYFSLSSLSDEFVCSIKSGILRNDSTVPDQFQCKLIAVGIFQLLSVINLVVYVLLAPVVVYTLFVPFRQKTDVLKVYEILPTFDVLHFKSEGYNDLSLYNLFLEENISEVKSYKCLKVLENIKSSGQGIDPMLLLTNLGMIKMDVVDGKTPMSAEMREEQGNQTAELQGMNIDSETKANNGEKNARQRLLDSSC

With `COc1ccc(CC(=O)NC(N=C(NC#N)Nc2cccc3ncccc23)C(C)(C)C)cc1OC` (stereo not shown) [A-740003, N-[1-[[(Cyanoamino)(5-quinolinylamino)methylene]amino]-2,2-dimethylpropyl]-3,4-dimethoxybenzeneacetamide], the inhibition (as a rule, the drop in the measured response relative to a control, in per cent) at 100 µM in the series with HIVADA (read-out: inhibition of HIV p24 production relative to HIV plus the vehicle DMSO) lay in the range of 70 to 91%. For the same compound, in series [1], the “reduction in viral entry (percentage of cells with viral entry) relative to HIV only” value is listed as “did not change”. In the series with Macrophages, the “cell viability (live/dead assay)” value is “did not alter cell viability; also recorded: None of the antagonist caused any decrease in cell viability”.
`[La+3]` [La^3+, Lanthanum]: the “Etd uptake (rate) induced by the virus” value at Panx1 hemichannels [2] is reported as “did not cause changes”; at Panx1 hemichannels [2] (listed as Lanthanum), “did not affect”.
Turning to “RANTES/CCL5: a physiological ligand for CCR5”, in the series with Panx1 hemichannels [3] (chemokines 100 ng/ml, time course), the “Etd uptake after single addition of chemokine or gp120” value is “fast and extremely transient increase (only 5 min)”.
Regarding `Cc1ccc(-c2ccc3c(c2)C=C(C(=O)Nc2ccc(C[N+](C)(C)C4CCOCC4)cc2)CCC3)cc1.[Cl-]` [TAK-779], the “Etd uptake induced by R5 viruses” value at Panx1 hemichannels [2] (CD4+ T lymphocytes, HIVADA and HIVBal, TAK-779 100 ng/ml) is “reduced”.
As for `CCCN(CCC)S(=O)(=O)c1ccc(C(=O)O)cc1` [probenecid], the “gp120-induced Etd uptake, in presence of blockers” value on Panx1 hemichannels [3] (5 min) is “inhibited”. The “Etd uptake induced by the virus, analyzed by FACS” value on Panx1 hemichannels [4] is given as “reduced Etd uptake”; at Panx1 hemichannels [4] (listed as Probenecid), “reduced to control conditions (100%)”. Besides, on Panx1 hemichannels [2], the “Etd uptake (rate) induced by the virus” value was “completely blocked; also recorded: completely reduced”.
As to `O=C(Nc1ccc(C(=O)Nc2ccc(C(=O)Nc3ccc(S(=O)(=O)[O-])c4cc(S(=O)(=O)[O-])cc(S(=O)(=O)[O-])c34)cc2)cc1)Nc1ccc(C(=O)Nc2ccc(C(=O)Nc3ccc(S(=O)(=O)[O-])c4cc(S(=O)(=O)[O-])cc(S(=O)(=O)[O-])c34)cc2)cc1.[Na+].[Na+].[Na+].[Na+].[Na+].[Na+]` [NF 279, 8,8′-[Carbonylbis(imino-4,1-phenylenecarbonylimino-4,1-phenylenecarbonylimino)]bis-1,3,5-naphthalenetrisulfonic acid hexasodium salt], the “inhibition of HIV p24 production as compared to HIV infected cultures without the inhibitors” value with HIVADA (100 μM, 3 independent donors, NF 279 on days 2-7 post inoculation) was 90-98%. Moreover, the “reduction in viral entry (percentage of cells with viral entry) relative to HIV only” value in series [1] is given as 98%. Besides, the “cell viability (live/dead assay)” value with Macrophages is “did not alter cell viability; also recorded: None of the antagonist caused any decrease in cell viability”.
For the compound `Cc1ccc(C(=O)Nc2ccc(S(=O)(=O)O)c3cc(S(=O)(=O)O)cc(S(=O)(=O)O)c23)cc1NC(=O)c1cccc(NC(=O)Nc2cccc(C(=O)Nc3cc(C(=O)Nc4ccc(S(=O)(=O)O)c5cc(S(=O)(=O)O)cc(S(=O)(=O)O)c45)ccc3C)c2)c1` [suramin], the “inhibition of HIVADA replication” value in the series on HIVADA (suramin, every time point tested, N=3 donors) amounted to 100%. Also, the “cell viability (live/dead assay)” value in the series with Macrophages is reported as “None of the antagonist caused any decrease in cell viability; also recorded: without altering cell viability”.
For `CNc1ncnc2c1ncn2[C@H]1C[C@H](OP(=O)([O-])[O-])[C@@H](COP(=O)([O-])[O-])O1.[Na+].[Na+].[Na+].[Na+]` [MRS 2179, 2′-deoxy-N6-methyladenosine 3′,5′-bisphosphate tetrasodium salt], in the series on HIVADA (100 μM, 3 independent donors, NF 279 on days 2-7 post inoculation, read-out: inhibition of HIV p24 production as compared to HIV infected cultures without the inhibitors), the inhibition at 100 µM was in the range of 60 to 70%. Also, in series [1], the “reduction in viral entry (percentage of cells with viral entry) relative to HIV only” value was “did not change”. Also, in the series on Macrophages, the “cell viability (live/dead assay)” value was “did not alter cell viability; also recorded: None of the antagonist caused any decrease in cell viability”.
